# From PubChem BioAssay AID1963852 (Molecular Pharmacology Branch, DTP, NCI, 2024)
# System: 282377-053-R-J1-PDC complex spheroid viability
# Assay: Anticancer human tumor 282377-053-R-J1-PDC patient-derived colon adenocarcinoma cell line growth inhibition [POLQ]
# Conditions: for IC50: curve of first compound; for viability, T/C: stronger effect = lower value
# Outline: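 Patient-derived tumour cells were co-cultured with HUVEC and mesenchymal stem cells as multicellular spheroids at 37 °C. They were treated with POLQ inhibitors (novobiocin, ART-558, RP6685) alone or combined with other agents. Top concentrations were at or near clinical Cmax (otherwise 10 microM; SN-38 at 1 microM), decreasing in half-log steps.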
# [1] = second compound 0.0316 µM, first compound 0.0316 µM
# [2] = second compound 0.0316 µM, first compound 0.1 µM
# [3] = second compound 0.0316 µM, first compound 0.316 µM
# [4] = second compound 0.0316 µM, first compound 1 µM
# [5] = second compound 0.0316 µM, first compound 3.16 µM
# [6] = second compound 0.0316 µM, first compound 10 µM
# [7] = second compound 0.1 µM, first compound 0.0316 µM
# [8] = second compound 0.1 µM, first compound 0.1 µM
# [9] = second compound 0.1 µM, first compound 0.316 µM
# [10] = second compound 0.1 µM, first compound 1 µM
# [11] = second compound 0.1 µM, first compound 3.16 µM
# [12] = second compound 0.1 µM, first compound 10 µM
# [13] = second compound 0.316 µM, first compound 0.0316 µM
# [14] = second compound 0.316 µM, first compound 0.1 µM
# [15] = second compound 0.316 µM, first compound 0.316 µM
# [16] = second compound 0.316 µM, first compound 1 µM
# [17] = second compound 0.316 µM, first compound 3.16 µM
# [18] = second compound 0.316 µM, first compound 10 µM
# [19] = second compound 1 µM, first compound 0.0316 µM
# [20] = second compound 1 µM, first compound 0.1 µM
# [21] = second compound 1 µM, first compound 0.316 µM
# [22] = second compound 1 µM, first compound 1 µM
# [23] = second compound 1 µM, first compound 3.16 µM
# [24] = second compound 1 µM, first compound 10 µM
# [25] = second compound 3.16 µM, first compound 0.0316 µM
# [26] = second compound 3.16 µM, first compound 0.1 µM
# [27] = second compound 3.16 µM, first compound 0.316 µM
# [28] = second compound 3.16 µM, first compound 1 µM
# [29] = second compound 3.16 µM, first compound 3.16 µM
# [30] = second compound 3.16 µM, first compound 10 µM
# [31] = second compound 10 µM, first compound 0.0316 µM
# [32] = second compound 10 µM, first compound 0.1 µM
# [33] = second compound 10 µM, first compound 0.316 µM
# [34] = second compound 10 µM, first compound 1 µM
# [35] = second compound 10 µM, first compound 3.16 µM
# [36] = second compound 10 µM, first compound 10 µM
# 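Note: spheroids exposed to compounds for seven days.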
# 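Throughout, for viability, T/C: 100% = DMSO vehicle control viability.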
structure (smiles),measurement,setting,value
CCc1cc2c(N3CCc4c(cc(Cn5ccnc5)cc4-c4cn(C)nc4C(F)(F)F)C3=O)cc(C)nc2c(OC)n1 + COC1C(OC(N)=O)C(O)C(Oc2ccc3c(O)c(NC(=O)c4ccc(O)c(CC=C(C)C)c4)c(=O)oc3c2C)OC1(C)C,IC50,second compound 0.0316 µM,> 10 µM
same,IC50,second compound 0.1 µM,> 10 µM
same,IC50,second compound 0.316 µM,> 10 µM
same,IC50,second compound 1 µM,> 10 µM
same,IC50,second compound 3.16 µM,> 10 µM
same,IC50,second compound 10 µM,> 10 µM
same,"viability, T/C",[1],130%
same,"viability, T/C",[2],152%
same,"viability, T/C",[3],172%
same,"viability, T/C",[4],158%
same,"viability, T/C",[5],123%
same,"viability, T/C",[6],74.5%
same,"viability, T/C",[7],120%
same,"viability, T/C",[8],157%
same,"viability, T/C",[9],124%
same,"viability, T/C",[10],131%
same,"viability, T/C",[11],134%
same,"viability, T/C",[12],68.9%
same,"viability, T/C",[13],132%
same,"viability, T/C",[14],126%
same,"viability, T/C",[15],132%
same,"viability, T/C",[16],140%
same,"viability, T/C",[17],119%
same,"viability, T/C",[18],67.2%
same,"viability, T/C",[19],141%
same,"viability, T/C",[20],128%
same,"viability, T/C",[21],143%
same,"viability, T/C",[22],158%
same,"viability, T/C",[23],108%
same,"viability, T/C",[24],80.7%
same,"viability, T/C",[25],109%
same,"viability, T/C",[26],125%
same,"viability, T/C",[27],133%
same,"viability, T/C",[28],126%
same,"viability, T/C",[29],128%
same,"viability, T/C",[30],73.8%
same,"viability, T/C",[31],111%
same,"viability, T/C",[32],109%
same,"viability, T/C",[33],114%
same,"viability, T/C",[34],143%
same,"viability, T/C",[35],123%
same,"viability, T/C",[36],80%
CC1COCCN1c1cc(-c2ccnn2C)c2ccnc(-c3ccn[nH]3)c2n1 (stereo unspecified) + Nc1ccc(C#CCN(C(=O)Cc2ncc(C(F)(F)F)cc2C(F)(F)F)c2ccc(F)cc2)nn1,IC50,second compound 0.0316 µM,2.12 µM
same,IC50,second compound 0.1 µM,0.717 µM
same,IC50,second compound 0.316 µM,0.826 µM
same,IC50,second compound 1 µM,0.821 µM
same,IC50,second compound 3.16 µM,0.997 µM
same,IC50,second compound 10 µM,1.2 µM
same,"viability, T/C",[1],84.6%
same,"viability, T/C",[2],78.7%
same,"viability, T/C",[3],69.4%
same,"viability, T/C",[4],62.3%
same,"viability, T/C",[5],42.6%
same,"viability, T/C",[6],35.1%
same,"viability, T/C",[7],86.2%
same,"viability, T/C",[8],88%
same,"viability, T/C",[9],66.4%
same,"viability, T/C",[10],44.3%
same,"viability, T/C",[11],41.1%
same,"viability, T/C",[12],41.2%
same,"viability, T/C",[13],91%
same,"viability, T/C",[14],81%
same,"viability, T/C",[15],58.8%
same,"viability, T/C",[16],49.4%
same,"viability, T/C",[17],45.8%
same,"viability, T/C",[18],41.5%
same,"viability, T/C",[19],94.5%
same,"viability, T/C",[20],83.2%
same,"viability, T/C",[21],67.3%
same,"viability, T/C",[22],43.8%
same,"viability, T/C",[23],41.5%
same,"viability, T/C",[24],33%
same,"viability, T/C",[25],100%
same,"viability, T/C",[26],78.3%
same,"viability, T/C",[27],67.3%
same,"viability, T/C",[28],49.4%
same,"viability, T/C",[29],37.3%
same,"viability, T/C",[30],44.8%
same,"viability, T/C",[31],103%
same,"viability, T/C",[32],84.2%
same,"viability, T/C",[33],78.5%
same,"viability, T/C",[34],47.9%
same,"viability, T/C",[35],39.5%
same,"viability, T/C",[36],46.3%
O=c1[nH]cc(F)c(=O)[nH]1 + COC1C(OC(N)=O)C(O)C(Oc2ccc3c(O)c(NC(=O)c4ccc(O)c(CC=C(C)C)c4)c(=O)oc3c2C)OC1(C)C,IC50,second compound 0.0316 µM,> 10 µM
same,IC50,second compound 0.1 µM,> 10 µM
same,IC50,second compound 0.316 µM,> 10 µM
same,IC50,second compound 1 µM,> 10 µM
same,IC50,second compound 3.16 µM,> 10 µM
same,IC50,second compound 10 µM,> 10 µM
same,"viability, T/C",[1],112%
same,"viability, T/C",[2],89%
same,"viability, T/C",[3],104%
same,"viability, T/C",[4],92%
same,"viability, T/C",[5],74.6%
same,"viability, T/C",[6],66.9%
same,"viability, T/C",[7],109%
same,"viability, T/C",[8],107%
same,"viability, T/C",[9],90.9%
same,"viability, T/C",[10],89.7%
same,"viability, T/C",[11],72.1%
same,"viability, T/C",[12],71%
same,"viability, T/C",[13],112%
same,"viability, T/C",[14],125%
same,"viability, T/C",[15],97.1%
same,"viability, T/C",[16],81.5%
same,"viability, T/C",[17],77.7%
same,"viability, T/C",[18],71.1%
same,"viability, T/C",[19],112%
same,"viability, T/C",[20],97.9%
same,"viability, T/C",[21],94.4%
same,"viability, T/C",[22],86.4%
same,"viability, T/C",[23],79.6%
same,"viability, T/C",[24],71.2%
same,"viability, T/C",[25],102%
same,"viability, T/C",[26],101%
same,"viability, T/C",[27],88.1%
same,"viability, T/C",[28],100%
same,"viability, T/C",[29],80.7%
same,"viability, T/C",[30],66.8%
same,"viability, T/C",[31],105%
same,"viability, T/C",[32],103%
same,"viability, T/C",[33],115%
same,"viability, T/C",[34],98%
same,"viability, T/C",[35],82.2%
same,"viability, T/C",[36],63.5%
